Literature values, collected in US20250017878A1 (Chronic Airway Therapeutics Limited, priority 2021, published 2025).

Tests used:
[1] = cited from earlier work
[2] = cited from earlier work; remark: listed apart in the source

Question: Which “plasma clearance of the two enantiomers per kilogram bodyweight, children with asthma higher than healthy adults” value ([1]; 6 children with asthma versus 11 healthy adults) does the source give for CCCC1O[C@@H]2C[C@H]3[C@@H]4CCC5=CC(=O)C=C[C@]5(C)[C@H]4[C@@H](O)C[C@]3(C)[C@]2(C(=O)CO)O1 (stereo partly drawn) [budesonide] here?
Answer: The value was “about 50%”.

Question: What about the elimination half-life ([1]; in vivo) of the same compound?
Answer: The elimination half-life was 2.8 ± 1.1 h.

Question: And the plasma clearance ([1]; in vivo)?
Answer: Its plasma clearance is 84 ± 27 L/h.

Question: And the “plasma clearance relative to average clearance of prednisolone” value ([1]; in vivo)?
Answer: The value was “about 10 fold”.

Question: And the “systemic availability of the swallowed fraction” value ([1]; in vivo)?
Answer: The value was 10.7±4.3%.

Question: Which “first-pass hepatic metabolism of the systemically absorbed drug” value ([1]; inhaled drug) does the source give for C[C@@H]1C[C@H]2[C@@H]3C[C@H](F)C4=CC(=O)C=C[C@]4(C)[C@@]3(F)[C@@H](O)C[C@]2(C)[C@@]1(O)C(=O)SCF [fluticasone] here?
Answer: Its value is “almost complete”.

Question: With OCc1cc(C(O)CNCCCCCCOCCCCc2ccccc2)ccc1O (stereo not drawn) [salmeterol] as the compound, how does the “time in which the majority of a dose is eliminated in the feces” value ([2]; in vivo) read?
Answer: The value was at most 72 h.

Question: Which results are given for CC(C)(C)NCC(O)c1cc(O)cc(O)c1 (stereo not drawn) [terbutaline]?
Answer: increase of bioavailability by the oral component ([2]; from an MDI): 6.7%; absorption through the lung ([2]; healthy smokers versus healthy nonsmokers): more rapidly in healthy smokers than in healthy nonsmokers
